Activity calls are given as the source filed them. No rule for the calls is given here.
Tests used:
Format in all cases: functional
[1] = biological target: Vascular endothelial growth factor receptor 2 (Homo sapiens, UniProt P35968)
[2] = biological target: T1, Tyrosine-protein kinase JAK3 (Homo sapiens, UniProt P52333)
T1 sequence (P52333 whole entry): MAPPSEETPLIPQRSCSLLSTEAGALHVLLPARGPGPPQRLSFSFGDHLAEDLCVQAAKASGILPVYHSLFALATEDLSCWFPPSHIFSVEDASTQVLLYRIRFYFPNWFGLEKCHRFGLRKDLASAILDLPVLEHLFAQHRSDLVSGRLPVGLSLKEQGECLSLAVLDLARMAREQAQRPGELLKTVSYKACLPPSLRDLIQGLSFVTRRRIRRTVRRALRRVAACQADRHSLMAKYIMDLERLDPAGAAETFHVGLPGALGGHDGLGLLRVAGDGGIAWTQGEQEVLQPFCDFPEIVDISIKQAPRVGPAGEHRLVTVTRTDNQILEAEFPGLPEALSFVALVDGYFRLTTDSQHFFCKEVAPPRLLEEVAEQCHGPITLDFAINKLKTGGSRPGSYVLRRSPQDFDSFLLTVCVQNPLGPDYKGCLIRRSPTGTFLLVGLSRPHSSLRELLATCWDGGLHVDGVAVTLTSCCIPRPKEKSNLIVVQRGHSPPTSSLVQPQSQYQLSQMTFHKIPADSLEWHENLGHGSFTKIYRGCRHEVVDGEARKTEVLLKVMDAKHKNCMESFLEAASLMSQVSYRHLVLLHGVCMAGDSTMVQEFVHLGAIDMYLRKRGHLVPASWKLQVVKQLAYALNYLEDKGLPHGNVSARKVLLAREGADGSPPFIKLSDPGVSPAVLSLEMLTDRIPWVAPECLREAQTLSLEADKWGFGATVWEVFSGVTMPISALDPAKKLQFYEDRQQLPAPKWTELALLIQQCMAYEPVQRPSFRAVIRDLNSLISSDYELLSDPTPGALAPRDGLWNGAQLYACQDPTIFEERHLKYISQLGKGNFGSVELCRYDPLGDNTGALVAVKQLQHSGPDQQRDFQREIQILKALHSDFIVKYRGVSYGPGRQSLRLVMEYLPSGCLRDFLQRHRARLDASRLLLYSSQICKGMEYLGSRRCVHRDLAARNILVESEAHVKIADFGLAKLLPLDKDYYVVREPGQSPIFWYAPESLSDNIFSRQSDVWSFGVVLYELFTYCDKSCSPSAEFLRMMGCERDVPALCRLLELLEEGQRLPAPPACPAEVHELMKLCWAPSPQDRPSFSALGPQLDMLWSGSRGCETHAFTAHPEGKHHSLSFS

[3] = biological target: T2, Receptor-type tyrosine-protein kinase FLT3 (Homo sapiens, UniProt P36888);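 also: FLT3 was tested as one member of a kinome-wide kinase panel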
T2 sequence (P36888 whole entry): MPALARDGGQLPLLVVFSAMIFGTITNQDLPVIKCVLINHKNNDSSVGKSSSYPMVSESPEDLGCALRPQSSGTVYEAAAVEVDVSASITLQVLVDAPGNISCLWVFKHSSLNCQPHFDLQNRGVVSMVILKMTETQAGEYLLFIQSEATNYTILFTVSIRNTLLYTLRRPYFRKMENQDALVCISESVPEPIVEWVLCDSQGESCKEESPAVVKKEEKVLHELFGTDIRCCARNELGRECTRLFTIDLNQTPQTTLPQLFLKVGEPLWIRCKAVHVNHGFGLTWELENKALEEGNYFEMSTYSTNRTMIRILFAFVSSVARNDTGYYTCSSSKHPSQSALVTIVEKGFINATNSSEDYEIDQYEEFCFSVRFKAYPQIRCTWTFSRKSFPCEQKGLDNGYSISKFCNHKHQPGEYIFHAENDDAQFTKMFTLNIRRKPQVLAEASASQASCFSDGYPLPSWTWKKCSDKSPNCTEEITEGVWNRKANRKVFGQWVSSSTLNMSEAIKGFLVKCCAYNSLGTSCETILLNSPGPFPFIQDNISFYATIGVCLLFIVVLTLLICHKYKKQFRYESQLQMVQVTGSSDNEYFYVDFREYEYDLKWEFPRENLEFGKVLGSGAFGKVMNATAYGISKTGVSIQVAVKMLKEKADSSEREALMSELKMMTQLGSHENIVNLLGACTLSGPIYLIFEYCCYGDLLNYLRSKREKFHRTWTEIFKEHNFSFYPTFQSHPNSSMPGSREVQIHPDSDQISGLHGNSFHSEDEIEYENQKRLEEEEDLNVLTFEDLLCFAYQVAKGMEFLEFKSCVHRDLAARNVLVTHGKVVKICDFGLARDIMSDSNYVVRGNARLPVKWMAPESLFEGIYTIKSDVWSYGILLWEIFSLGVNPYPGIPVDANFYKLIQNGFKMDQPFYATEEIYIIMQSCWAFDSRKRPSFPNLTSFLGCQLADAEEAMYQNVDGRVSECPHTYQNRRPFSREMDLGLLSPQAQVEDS

[4] = biological target: Dual specificity protein kinase CLK2 (Homo sapiens, UniProt P49760)
[5] = biological target: Ribosomal protein S6 kinase alpha-3 (Homo sapiens, UniProt P51812);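 also: measured within a kinome-wide profiling panel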
[6] = biological target: Serine/threonine-protein kinase PAK 4 (Homo sapiens, UniProt O96013);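 also: value obtained within a kinome profiling panel in which PAK4 was one of the panel members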
[7] = biological target: Leukocyte tyrosine kinase receptor (Homo sapiens, UniProt P29376); experiment: Navigating the Kinome. Panel member name: LTK
[8] = biological target: Mitogen-activated protein kinase 8 (Homo sapiens, UniProt P45983);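 also: value comes from one member of a kinome-wide kinase profiling panel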
Chain of Mitogen-activated protein kinase 8 (P45983 whole entry): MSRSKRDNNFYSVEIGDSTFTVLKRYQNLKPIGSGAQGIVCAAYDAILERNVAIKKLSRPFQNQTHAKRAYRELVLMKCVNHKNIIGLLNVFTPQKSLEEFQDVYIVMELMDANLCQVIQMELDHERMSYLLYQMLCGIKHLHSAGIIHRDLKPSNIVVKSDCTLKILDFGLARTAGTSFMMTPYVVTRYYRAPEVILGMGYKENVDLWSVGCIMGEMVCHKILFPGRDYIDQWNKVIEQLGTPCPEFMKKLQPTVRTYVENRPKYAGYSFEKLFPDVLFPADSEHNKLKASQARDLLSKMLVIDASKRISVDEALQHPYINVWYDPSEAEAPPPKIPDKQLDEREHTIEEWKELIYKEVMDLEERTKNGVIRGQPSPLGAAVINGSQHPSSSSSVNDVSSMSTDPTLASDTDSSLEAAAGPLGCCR

Chain of Ribosomal protein S6 kinase alpha-3 (P51812 whole entry): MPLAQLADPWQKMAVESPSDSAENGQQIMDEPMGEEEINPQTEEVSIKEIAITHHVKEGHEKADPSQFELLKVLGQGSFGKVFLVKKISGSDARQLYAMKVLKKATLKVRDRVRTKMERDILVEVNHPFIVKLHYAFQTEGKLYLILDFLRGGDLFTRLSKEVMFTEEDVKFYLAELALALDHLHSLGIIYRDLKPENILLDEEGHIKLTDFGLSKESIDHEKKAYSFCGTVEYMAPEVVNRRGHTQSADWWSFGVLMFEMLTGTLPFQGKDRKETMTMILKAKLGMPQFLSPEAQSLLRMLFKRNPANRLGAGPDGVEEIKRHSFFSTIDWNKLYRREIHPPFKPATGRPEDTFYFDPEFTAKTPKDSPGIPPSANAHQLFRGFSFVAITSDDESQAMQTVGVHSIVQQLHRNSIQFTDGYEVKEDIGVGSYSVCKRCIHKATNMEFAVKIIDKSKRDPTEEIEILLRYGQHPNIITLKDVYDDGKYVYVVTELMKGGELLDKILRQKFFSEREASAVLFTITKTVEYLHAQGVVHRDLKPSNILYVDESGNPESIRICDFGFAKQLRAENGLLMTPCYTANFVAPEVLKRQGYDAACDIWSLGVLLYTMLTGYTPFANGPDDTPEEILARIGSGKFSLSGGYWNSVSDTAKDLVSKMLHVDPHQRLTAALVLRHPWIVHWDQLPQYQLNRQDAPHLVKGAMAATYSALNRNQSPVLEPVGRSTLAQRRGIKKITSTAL
Chain of Leukocyte tyrosine kinase receptor (P29376 whole entry): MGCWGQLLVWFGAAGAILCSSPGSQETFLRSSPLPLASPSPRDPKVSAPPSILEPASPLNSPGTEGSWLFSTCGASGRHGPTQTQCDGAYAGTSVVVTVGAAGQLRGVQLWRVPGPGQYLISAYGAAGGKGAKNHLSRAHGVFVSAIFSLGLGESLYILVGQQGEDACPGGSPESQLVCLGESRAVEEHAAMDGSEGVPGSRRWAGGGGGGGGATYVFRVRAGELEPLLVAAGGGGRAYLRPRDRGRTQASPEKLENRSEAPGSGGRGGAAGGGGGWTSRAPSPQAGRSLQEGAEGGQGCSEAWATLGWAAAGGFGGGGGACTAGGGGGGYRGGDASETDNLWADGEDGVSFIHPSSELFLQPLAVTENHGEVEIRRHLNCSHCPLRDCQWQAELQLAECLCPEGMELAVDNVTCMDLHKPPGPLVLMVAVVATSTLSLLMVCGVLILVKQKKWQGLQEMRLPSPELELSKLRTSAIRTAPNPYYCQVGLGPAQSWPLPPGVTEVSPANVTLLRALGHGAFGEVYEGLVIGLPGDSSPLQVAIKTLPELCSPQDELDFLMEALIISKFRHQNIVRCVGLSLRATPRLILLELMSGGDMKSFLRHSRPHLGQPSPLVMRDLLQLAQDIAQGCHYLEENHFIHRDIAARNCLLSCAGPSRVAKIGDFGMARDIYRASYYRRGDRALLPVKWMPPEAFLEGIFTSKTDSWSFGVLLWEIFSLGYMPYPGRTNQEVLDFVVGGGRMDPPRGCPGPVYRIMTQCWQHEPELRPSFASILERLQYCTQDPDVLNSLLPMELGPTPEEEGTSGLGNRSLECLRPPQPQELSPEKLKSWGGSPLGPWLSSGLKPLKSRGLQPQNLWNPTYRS
Chain of Dual specificity protein kinase CLK2 (P49760 whole entry): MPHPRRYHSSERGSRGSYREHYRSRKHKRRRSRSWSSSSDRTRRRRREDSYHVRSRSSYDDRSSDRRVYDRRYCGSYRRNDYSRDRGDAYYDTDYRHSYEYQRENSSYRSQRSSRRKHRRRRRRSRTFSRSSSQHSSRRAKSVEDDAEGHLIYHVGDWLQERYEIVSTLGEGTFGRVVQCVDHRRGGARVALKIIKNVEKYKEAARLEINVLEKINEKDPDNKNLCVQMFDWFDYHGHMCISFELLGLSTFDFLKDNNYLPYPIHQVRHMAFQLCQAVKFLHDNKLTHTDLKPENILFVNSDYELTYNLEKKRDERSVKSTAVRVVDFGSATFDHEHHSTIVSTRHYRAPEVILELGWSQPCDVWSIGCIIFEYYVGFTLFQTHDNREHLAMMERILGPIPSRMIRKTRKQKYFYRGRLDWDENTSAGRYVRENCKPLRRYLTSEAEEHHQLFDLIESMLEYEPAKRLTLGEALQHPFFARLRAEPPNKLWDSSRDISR
Chain of Serine/threonine-protein kinase PAK 4 (O96013 whole entry): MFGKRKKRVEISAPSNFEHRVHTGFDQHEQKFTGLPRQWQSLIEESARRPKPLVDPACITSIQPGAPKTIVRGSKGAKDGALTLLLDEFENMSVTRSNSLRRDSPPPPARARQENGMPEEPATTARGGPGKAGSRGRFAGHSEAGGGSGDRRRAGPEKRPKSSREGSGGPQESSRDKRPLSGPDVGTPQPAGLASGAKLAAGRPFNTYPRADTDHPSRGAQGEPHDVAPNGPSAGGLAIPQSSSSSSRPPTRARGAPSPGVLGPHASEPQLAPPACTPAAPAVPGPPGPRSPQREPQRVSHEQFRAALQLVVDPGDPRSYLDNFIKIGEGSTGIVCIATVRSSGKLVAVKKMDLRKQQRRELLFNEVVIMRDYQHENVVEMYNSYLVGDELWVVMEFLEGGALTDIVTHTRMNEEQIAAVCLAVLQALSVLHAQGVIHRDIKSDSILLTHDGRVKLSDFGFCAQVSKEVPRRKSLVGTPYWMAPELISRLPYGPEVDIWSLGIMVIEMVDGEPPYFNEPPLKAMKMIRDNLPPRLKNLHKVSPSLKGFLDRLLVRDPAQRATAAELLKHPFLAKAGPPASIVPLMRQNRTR
Chain of Vascular endothelial growth factor receptor 2 (P35968 whole entry): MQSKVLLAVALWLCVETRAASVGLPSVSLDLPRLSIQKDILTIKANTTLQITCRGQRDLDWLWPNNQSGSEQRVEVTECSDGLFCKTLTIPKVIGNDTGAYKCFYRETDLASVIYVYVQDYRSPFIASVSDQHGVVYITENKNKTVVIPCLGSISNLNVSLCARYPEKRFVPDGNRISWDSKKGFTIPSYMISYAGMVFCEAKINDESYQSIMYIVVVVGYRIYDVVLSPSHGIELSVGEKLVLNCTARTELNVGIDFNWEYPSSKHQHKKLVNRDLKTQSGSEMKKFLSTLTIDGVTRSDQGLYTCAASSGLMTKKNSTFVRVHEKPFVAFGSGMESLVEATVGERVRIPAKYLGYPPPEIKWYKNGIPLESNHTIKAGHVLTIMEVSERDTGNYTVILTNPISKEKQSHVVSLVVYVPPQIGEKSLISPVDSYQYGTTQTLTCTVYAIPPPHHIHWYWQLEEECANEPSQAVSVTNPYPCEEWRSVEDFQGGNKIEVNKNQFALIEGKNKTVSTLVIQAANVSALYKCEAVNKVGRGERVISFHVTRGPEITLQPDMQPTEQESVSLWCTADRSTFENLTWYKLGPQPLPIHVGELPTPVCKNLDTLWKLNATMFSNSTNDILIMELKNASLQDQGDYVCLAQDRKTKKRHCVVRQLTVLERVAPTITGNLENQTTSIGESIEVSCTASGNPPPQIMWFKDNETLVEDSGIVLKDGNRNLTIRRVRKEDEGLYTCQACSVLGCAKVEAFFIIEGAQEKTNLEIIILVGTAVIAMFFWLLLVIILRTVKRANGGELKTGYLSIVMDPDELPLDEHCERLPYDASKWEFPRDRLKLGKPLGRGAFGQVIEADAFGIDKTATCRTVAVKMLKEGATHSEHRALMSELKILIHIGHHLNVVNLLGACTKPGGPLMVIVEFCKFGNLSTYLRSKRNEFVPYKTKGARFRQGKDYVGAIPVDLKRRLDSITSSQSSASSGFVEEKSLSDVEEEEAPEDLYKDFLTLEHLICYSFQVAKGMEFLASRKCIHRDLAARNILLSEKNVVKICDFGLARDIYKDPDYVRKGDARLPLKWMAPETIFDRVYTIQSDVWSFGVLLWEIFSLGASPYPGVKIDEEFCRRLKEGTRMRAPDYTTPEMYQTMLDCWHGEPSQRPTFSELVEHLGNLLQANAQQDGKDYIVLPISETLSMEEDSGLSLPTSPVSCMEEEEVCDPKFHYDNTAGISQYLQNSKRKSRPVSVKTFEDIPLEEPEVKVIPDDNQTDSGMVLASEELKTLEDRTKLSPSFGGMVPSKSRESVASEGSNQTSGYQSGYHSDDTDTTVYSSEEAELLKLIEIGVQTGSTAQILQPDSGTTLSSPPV

Row | Ki [1] | Ki [2] | Ki [3] | Ki [4] | Ki [5] | Ki [6] | Ki [7] | Ki [8] | Structure (SMILES)
1 | > 2.51 µM (inactive) | > 5.01 µM (inactive) | > 3.16 µM (inactive) | > 3.98 µM (inactive) | > 3.98 µM (inactive) | > 5.01 µM (inactive) | > 2.51 µM (inactive) | > 5.01 µM (inactive) | COc1cccc(C(C)NC(=O)c2sc(-c3ccncc3)nc2C)c1 (centres undefined)
2 | > 2.51 µM (inactive) | > 5.01 µM (inactive) | > 2.51 µM (inactive) | 1.58 µM (active) | > 3.98 µM (inactive) | > 5.01 µM (inactive) | > 2.51 µM (inactive) | > 5.01 µM (inactive) | CCCCC(=O)Nc1cc(-c2c[nH]c3ncccc23)cc(Cl)n1
3 | > 2 µM (inactive) | > 5.01 µM (inactive) | > 2.51 µM (inactive) | > 3.98 µM (inactive) | > 3.98 µM (inactive) | > 5.01 µM (inactive) | > 1.58 µM (inactive) | 0.501 µM (active) | Oc1ccc(-c2nc(-c3ccncc3)c(-c3ccc(F)cc3)[nH]2)cc1 [SB-202190]

Reference: ChEMBL document CHEMBL1201862, “PubChem BioAssay data set” (2004)
